The values below come from patent US4683239A, “3-diphenyl substituted octahydroindolizine analgesic compounds” (McNeilab, Inc., priority 1986, dated 1987).

In this experiment the test system is mice. As to the kind of experiment: Mouse Acetylcholine-Bromide-Induced Abdominal Constriction Assay. Conditions: oral (p.o.), 30 min before i.p. 5.5 mg/kg acetylcholine bromide; for ED50: Mus musculus, po, 0.5 h, dose which inhibits writhing by 50%; for % Inhibition of writhing (% analgesia): @ 30 mg/kg, printed in ED50 column. The experiment is classed as in vivo. As to the method:
[…]., 32: 295-310, 1968, with minor modifications was used to assess analgesic potency of the compounds of formula (I). The test drugs or appropriate vehicle were administered orally (p.o.) and 30 minutes later the animals received an intraperitoneal (i.p.) injection of 5.5 mg/kg acetylcholine bromide (Matheson, Coleman and Bell, East Rutherford, NJ). The mice were then placed in groups of four into glass bell jars and observed for a ten minute observation period for the occurrence of a writhe (defined as a wave of constriction and elongation passing caudally along the abdominal wall, accompanied by a twisting of the trunk and followed by extension of the hind limbs). The percent inhibition of writhing (equated to % analgesia) was calculated as follows: The % Inhibition of writhing, i.e., % analgesia is equal to the difference between the No. of control animals writhing and the No. of drug-treated animals writhing times 100 divided by the No. of control animals writhing. At least 20 animals were used for control and in each of the drug treated groups. Four doses were used to determine each dose response curve and ED50 (that dose which inhibits writhing by 50%). The ED50 values and their 95% fiducial limits were determined by a computer assisted probit analysis.

Structures can show the parent of a compound that is named as a salt.

What is called ED50 is the dose that gives a 50% effect, or the effect in half of the subjects. High values mean a need for a large dose, low ones an effect at a small dose. `CC(=O)Nc1cccc(C#Cc2ccc([C@@H]3CC[C@@H]4CCCCN43)cc2)c1` (relative stereo) [Example 2, N-[3-[[4-(trans-Octahydro-3-indolizinyl)phenyl]ethynyl]phenyl]acetamide] gave an ED50 of 17.6 mg/kg.
Take `Cl.c1ccc(COc2ccc([C@@H]3CC[C@@H]4CCCCN43)cc2)cc1` (relative stereo) [Example 3b, trans-Octahydro-3-[4-(phenylmethoxy)phenyl]indolizine Hydrochloride]: the 50% effect level (ED50) was put at a dose of 16.8 mg/kg.
Consider `CC(=O)Nc1cccc(/C=C\c2ccc([C@H]3CC[C@H]4CCCCN43)cc2)c1` (relative stereo) [Example 4], for which the ED50 was determined as 6.9 mg/kg.
As for `Cl.c1ccc(CCc2ccc([C@@H]3CC[C@@H]4CCCCN43)cc2)cc1` (relative stereo) [Example 6, trans-Octahydro-3-[4-(2-phenylethyl)phenyl]indolizine Hydrochloride], the ED50 turned out to be 6.9 mg/kg.
As to `CC(=O)Nc1cccc(CCc2ccc([C@@H]3CC[C@@H]4CCCCN43)cc2)c1` (relative stereo) [Example 9, N-[3-[2-[4-(trans-Octahydro-3-indolizinyl)phenyl]ethyl]phenyl]acetamide], the “% Inhibition of writhing (% analgesia)” value amounted to 86%.
As to `CC(=O)Nc1cccc(Sc2ccc([C@H]3CC[C@H]4CCCCN43)cc2)c1` (relative stereo) [Example 11, N-[3-[[4-trans-Octahydro-3-indolizinyl)phenyl]thio]phenyl]acetamide Hydrochloride Hydrate], the “% Inhibition of writhing (% analgesia)” value stood at 73%.
Consider `CC(=O)Nc1ccc(Oc2ccc([C@H]3CC[C@H]4CCCCN43)cc2)cc1` (relative stereo) [Example 12f, N-[4-[4-trans-Octahydro-3-indolizinyl)phenoxy]phenylacetamide], for which the median effective dose (ED50) is no more than 5 mg/kg.
`CC(=O)Nc1ccc(Sc2ccc([C@@H]3CC[C@@H]4CCCCN43)cc2)c(Cl)c1.Cl` (relative stereo) [Example 13e]: the “% Inhibition of writhing (% analgesia)” value amounted to 46%.
The molecule `Cc1ccc(Sc2ccc(C3CCC4CCCCN43)cc2)cc1.Cl` (stereo not drawn) [Example 7, 3-[4-[(4-Methylphenyl)thio]phenyl]octahydroindolizine Hydrochloride] returned an ED50 of 20 to 30 mg/kg.
